Source: US12173003B1, “Pyrrolo[3,2-C][2,6]naphthyridine-2-carboxylic acid compounds as CK2 inhibitors” (KING FAISAL UNIVERSITY, priority 2023, dated 2024)

Legend:
[1] = test system: HL60 (leukemia); assay: In vitro cytotoxic activity MTT assay, HL60; assay type: cell-based; settings: Homo sapiens, HL-60; HL60 cells, exposed for 96 hours; read-out: IC50, 50% inhibition of cell proliferation, HL60 (leukemia)
Description: (§1) Compounds 1-16 were screened for their in vitro cytotoxic activity utilizing a 3-(4,5-dimethyl-thiazol-2-yl)-2,5-diphenyltetrazolium bromide (MTT) assay against selected cancer human cell lines consisting of PC3 (prostate), HCT116 (colon), A375 (melanoma), H1299 (lung), MIAPaCa-2 (pancreas), HL60 (leukemia), MCF7 (breast), MDA-MB-231 (breast) (T. Mosmann, J. Immunol. Meth., 1983, 65, 55-63). The cells were cultured at 37° C. in RMPI1640 medium supplemented with 10% fetal bovine serum, 50 IU/mL penicillin, and 50 μg/mL streptomycin in a 5% CO2 incubator. All cells were sub-cultured 3 times/week by trypsinisation. Viable cells were seeded and allowed to adhere for 12 h before a test drug was added in 96-well plates at an initial density of 1.0×10^5 cells/mL. Tumour cell lines were separately exposed to various concentrations of the tested compounds followed by incubation at a temperature of 37° C. during 96 h inside a medium of fresh RMPI 1640. Cells were subsequently incubated at 37° C. using MTT at 0.5 mg/mL during 4 h. After removal of supernatant, formazan crystals were dissolved in isopropanol and the optical density was measured at 570 nm. CX-4945 was used as a positive control.

[2] = test system: A375 (melanoma); assay: In vitro cytotoxic activity MTT assay, A375; assay type: cell-based; settings: Homo sapiens, A-375; A375 cells, exposed for 96 hours; read-out: IC50, 50% inhibition of cell proliferation, A375 (melanoma)
Description: as §1

[3] = test system: MDA-MB-231 (breast); assay: In vitro cytotoxic activity MTT assay, MDA-MB-231; assay type: cell-based; settings: Homo sapiens; MDA-MB-231 cells, exposed for 96 hours; read-out: IC50, 50% inhibition of cell proliferation, MDA-MB-231 (breast)
Description: as §1

[4] = test system: MIAPaCa-2 (pancreas); assay: In vitro cytotoxic activity MTT assay, MIAPaCa-2; assay type: cell-based; settings: Homo sapiens, MIA PaCa-2; MIAPaCa-2 cells, exposed for 96 hours; read-out: IC50, 50% inhibition of cell proliferation, MIAPaCa-2 (pancreas)
Description: as §1

[5] = test system: MCF7 (breast); assay: In vitro cytotoxic activity MTT assay, MCF7; assay type: cell-based; settings: Homo sapiens; MCF7 cells, exposed for 96 hours; read-out: IC50, 50% inhibition of cell proliferation, MCF7 (breast)
Description: as §1

[6] = test system: HCT116 (colon); assay: In vitro cytotoxic activity MTT assay, HCT116; assay type: cell-based; settings: Homo sapiens, HCT-116; HCT116 cells, exposed for 96 hours; read-out: IC50, 50% inhibition of cell proliferation, HCT116 (colon)
Description: as §1

[7] = test system: PC3 (prostate); assay: In vitro cytotoxic activity MTT assay, PC3; assay type: cell-based; settings: Homo sapiens, PC-3; PC3 cells, exposed for 96 hours; read-out: IC50, 50% inhibition of cell proliferation, PC3 (prostate)
Description: as §1

[8] = test system: H1299 (lung); assay: In vitro cytotoxic activity MTT assay, H1299; assay type: cell-based; settings: Homo sapiens, NCI-H1299; H1299 cells, exposed for 96 hours; read-out: IC50, 50% inhibition of cell proliferation, H1299 (lung)
Description: as §1

[9] = biological target: T1, recombinant human CK2 (Homo sapiens, UniProt P68400); assay: CK2 Kinase Assay (33P-ATP, filter plate); assay type: biochemical; settings: final ATP concentration 15 μM, 10 min at 30° C.; read-out: protein kinase CK2 IC50
T1 construct: purchased Millipore
Description: CK2 Kinase Assay was conducted using the protocol as described in Pierre F. et al; J. Med. Chem. 2011, 54, 635-654. The tested compounds in aqueous solution were added at a volume of 10 μL to a reaction mixture comprising 10 μL of assay dilution buffer (ADB; 20 mM MOPS, pH 7.2, 25 mM β-glycerol phosphate, 5 mM EGTA, 1 mM sodium orthovanadate, and 1 mM dithiothreitol), 10 μL of substrate peptide (RRRDDDSDDD, dissolved in ADB at a concentration of 1 mM), 10 μL of recombinant human CK2 (RRββ-holoenzyme, 25 ng dissolved in ADB; Millipore). Reactions were initiated by the addition of 10 μL of ATP solution (90% 75 mMMgCl2, 75 μM ATP (final ATP concentration:15 μM) dissolved in ADB; 10% [γ-33P] ATP (stock 1 mCi/100 μL; 3000 Ci/mmol (Perkin-Elmer) and maintained for 10 min at 30° C. The reactions were quenched with 100 μL of 0.75% phosphoric acid and then transferred to and filtered through a phosphor cellulose filter plate (Millipore). After washing each well five times with 0.75% phosphoric acid, the plate was dried under vacuum for 5 min and, following the addition of 15 μL of scintillation fluid to each well, the residual radioactivity was measured using a Wallac luminescence counter. The IC50 values were derived from eight concentrations of test inhibitors.

T1 sequence (P68400 whole entry): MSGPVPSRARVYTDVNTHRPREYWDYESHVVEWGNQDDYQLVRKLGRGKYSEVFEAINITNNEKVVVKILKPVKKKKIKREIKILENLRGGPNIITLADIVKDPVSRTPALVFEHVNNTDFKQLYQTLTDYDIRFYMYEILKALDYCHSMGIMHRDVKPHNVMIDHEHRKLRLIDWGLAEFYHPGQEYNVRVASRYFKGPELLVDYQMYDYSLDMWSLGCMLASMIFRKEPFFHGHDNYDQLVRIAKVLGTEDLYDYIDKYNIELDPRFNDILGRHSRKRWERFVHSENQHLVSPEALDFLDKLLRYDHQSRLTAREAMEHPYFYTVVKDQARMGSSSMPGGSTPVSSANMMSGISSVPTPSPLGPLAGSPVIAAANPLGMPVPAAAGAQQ
T1 sequence (P67870 whole entry partner): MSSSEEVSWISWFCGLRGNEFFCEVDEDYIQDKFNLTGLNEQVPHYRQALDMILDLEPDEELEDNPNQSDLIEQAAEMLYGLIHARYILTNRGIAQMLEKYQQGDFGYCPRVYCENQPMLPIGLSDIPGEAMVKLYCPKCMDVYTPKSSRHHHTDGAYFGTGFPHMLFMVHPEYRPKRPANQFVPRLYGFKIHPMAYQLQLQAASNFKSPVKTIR

`O=C(O)c1cc2nc(Nc3cccc(Cl)c3)c3ccncc3c2[nH]1` [Compound 1, 5-((3-chlorophenyl)amino)-1H-pyrrolo[3,2-c][2,6]naphthyridine-2-carboxylic acid] gave an IC50 [1] of 2200 nM, an IC50 [2] of 2600 nM and an IC50 [3] of 3.9 µM. The IC50 [4] was 900 nM, the IC50 [5] was 3.5 µM and the IC50 [6] was 1100 nM. The IC50 [7] was 2400 nM, the IC50 [8] was 1500 nM and the IC50 [9] was 21 nM.
